According to the NIST ThermoML archive (doi:10.1021/je700542v):
Several values for one entry are separate records, joined by “and”; a condition that tells them apart may be missing. Equal values may be shown once.

Settings: Crystal

[Ag+].[F-] [silver fluoride]
Settings	vapor or sublimation pressure
880 K	5.754e-05 kPa
891 K	5.248e-05 kPa
894 K	7.763e-05 kPa
897 K	7.763e-05 kPa
904 K	8.318e-05 kPa
910 K	0.0001549 kPa and 9.772e-05 kPa and 0.0001047 kPa
912 K	0.0001047 kPa
913 K	0.0001349 kPa
914 K	0.0001549 kPa
917 K	0.0001549 kPa
920 K	0.0002291 kPa and 0.0001549 kPa and 0.000166 kPa
921 K	0.0001738 kPa
925 K	0.000166 kPa
928 K	0.0002344 kPa
929 K	0.000195 kPa and 0.0002089 kPa
931 K	0.0001738 kPa and 0.0002512 kPa
933 K	0.0002089 kPa
936 K	0.0002692 kPa
938 K	0.0002692 kPa
939 K	0.0003715 kPa
941 K	0.0002399 kPa
942 K	0.0002692 kPa
947 K	0.0004074 kPa
948 K	0.000309 kPa and 0.0004266 kPa
949 K	0.0005248 kPa and 0.0003467 kPa and 0.0003715 kPa
955 K	0.0003715 kPa
956 K	0.0004266 kPa
958 K	0.0005012 kPa and 0.0004677 kPa
965 K	0.000537 kPa and 0.0005012 kPa
966 K	0.0006918 kPa
967 K	0.0006761 kPa
968 K	0.0008913 kPa
974 K	0.0006456 kPa
975 K	0.0006761 kPa
977 K	0.0007244 kPa and 0.0007763 kPa
978 K	0.0008511 kPa
979 K	0.0008913 kPa
984 K	0.001047 kPa
985 K	0.000871 kPa and 0.000912 kPa and 0.0009772 kPa
986 K	0.001445 kPa
987 K	0.0008913 kPa
990 K	0.001175 kPa
994 K	0.001097 kPa and 0.001175 kPa
995 K	0.001698 kPa
996 K	0.001349 kPa and 0.001071 kPa
1000 K	0.001479 kPa and 0.001585 kPa
1004 K	0.001445 kPa
1005 K	0.00123 kPa
1008 K	0.002239 kPa
1010 K	0.001862 kPa
1012 K	0.00166 kPa and 0.001778 kPa
1013 K	0.001995 kPa and 0.001412 kPa
1014 K	0.001738 kPa
1017 K	0.00263 kPa
1019 K	0.002399 kPa
1022 K	0.002089 kPa and 0.002239 kPa
1025 K	0.002344 kPa
1026 K	0.001995 kPa
1031 K	0.002455 kPa and 0.00263 kPa
1034 K	0.00257 kPa
1036 K	0.003311 kPa
1037 K	0.003548 kPa
1040 K	0.00309 kPa and 0.003311 kPa
1049 K	0.003715 kPa and 0.003981 kPa
1057 K	0.004467 kPa and 0.004786 kPa

[Cu+2].[F-].[F-] [copper difluoride]
Settings	vapor or sublimation pressure
881 K	2.188e-05 kPa
886 K	2.951e-05 kPa
895 K	4.365e-05 kPa
896 K	3.715e-05 kPa and 4.365e-05 kPa
897 K	4.365e-05 kPa
900 K	4.365e-05 kPa
901 K	5.129e-05 kPa
902 K	5.129e-05 kPa
903 K	5.888e-05 kPa
906 K	5.888e-05 kPa
908 K	5.888e-05 kPa
909 K	8.128e-05 kPa
911 K	6.607e-05 kPa
912 K	8.912e-05 kPa
913 K	7.413e-05 kPa
914 K	8.128e-05 kPa
915 K	8.912e-05 kPa and 7.413e-05 kPa
918 K	7.413e-05 kPa
919 K	0.0001023 kPa
921 K	0.0001175 kPa
922 K	0.0001023 kPa and 9.55e-05 kPa
924 K	0.0001175 kPa
925 K	0.0001096 kPa
928 K	0.0001175 kPa
929 K	0.0001318 kPa
930 K	0.0001318 kPa and 0.0001479 kPa and 0.0001622 kPa
931 K	0.0001096 kPa
932 K	0.0001622 kPa
934 K	0.0001479 kPa
939 K	0.0001905 kPa and 0.0001778 kPa
940 K	0.0001905 kPa and 0.0002188 kPa
941 K	0.0001778 kPa
942 K	0.0002042 kPa
943 K	0.0002042 kPa
944 K	0.0001905 kPa
948 K	0.0002512 kPa and 0.0002344 kPa
949 K	0.0002512 kPa
950 K	0.000309 kPa
952 K	0.0002818 kPa and 0.000263 kPa
953 K	0.0002818 kPa
955 K	0.000309 kPa
956 K	0.0002951 kPa and 0.0002818 kPa
959 K	0.0003715 kPa and 0.0003548 kPa
960 K	0.0003802 kPa
961 K	0.0004365 kPa
964 K	0.0004266 kPa
965 K	0.0003802 kPa and 0.0004074 kPa
969 K	0.0005012 kPa [middle of 4 runs]
970 K	0.0005888 kPa
973 K	0.0005495 kPa and 0.0005129 kPa
974 K	0.0005129 kPa
976 K	0.0006166 kPa
978 K	0.0006607 kPa
979 K	0.0006607 kPa and 0.0007413 kPa
982 K	0.0006607 kPa
983 K	0.0007413 kPa
984 K	0.0006761 kPa
986 K	0.0008128 kPa and 0.0008318 kPa
988 K	0.0008318 kPa
989 K	0.0007943 kPa
990 K	0.0008511 kPa
992 K	0.0009772 kPa
993 K	0.001023 kPa
996 K	0.001122 kPa and 0.001097 kPa
998 K	0.001122 kPa and 0.001023 kPa
999 K	0.001097 kPa
1002 K	0.001288 kPa
1003 K	0.00123 kPa
1005 K	0.001445 kPa and 0.001412 kPa
1006 K	0.001412 kPa
1007 K	0.001349 kPa
1008 K	0.001445 kPa
1011 K	0.001698 kPa
1013 K	0.00182 kPa
1014 K	0.001862 kPa
1015 K	0.001906 kPa and 0.001778 kPa
1016 K	0.001738 kPa
1020 K	0.002188 kPa and 0.001995 kPa
1023 K	0.002455 kPa
1024 K	0.002455 kPa
1025 K	0.00257 kPa and 0.002455 kPa and 0.002239 kPa
1030 K	0.00263 kPa
1032 K	0.00309 kPa
1033 K	0.003162 kPa
1051 K	0.005129 kPa
